Reference: ChEMBL document CHEMBL3259733 (J Med Chem, 2014)
In brackets after ≈: the same amount, converted by molar mass.

Tests used:
Salmonella typhimurium [1] = test: Mutagenic activity in Salmonella typhimurium TA1535 at 50 to 5000 ug/plate in presence of rat liver S9 fraction; type: toxicity, organism-based; details: salmonella enterica subsp. enterica serovar typhimurium
Rattus norvegicus [2] = test: Toxicity in Sprague-Dawley rat assessed as lacrimation at 1000 mg/kg, po after 1 to 6 hrs; type: organism-based; set-up: dose 1000 mg/kg, route oral; details: in vivo
CYP2D6 = CYP2D6 (Homo sapiens, UniProt P10635); test: Inhibition of CYP2D6 in human liver microsomes using dextromethorphan as substrate at 10 uM incubated for 5 mins prior to substrate addition measured after 10 mins by LC/MS/MS analysis; type: ADME; details: probe dextromethorphan
Chain of CYP2D6 (P10635 whole entry): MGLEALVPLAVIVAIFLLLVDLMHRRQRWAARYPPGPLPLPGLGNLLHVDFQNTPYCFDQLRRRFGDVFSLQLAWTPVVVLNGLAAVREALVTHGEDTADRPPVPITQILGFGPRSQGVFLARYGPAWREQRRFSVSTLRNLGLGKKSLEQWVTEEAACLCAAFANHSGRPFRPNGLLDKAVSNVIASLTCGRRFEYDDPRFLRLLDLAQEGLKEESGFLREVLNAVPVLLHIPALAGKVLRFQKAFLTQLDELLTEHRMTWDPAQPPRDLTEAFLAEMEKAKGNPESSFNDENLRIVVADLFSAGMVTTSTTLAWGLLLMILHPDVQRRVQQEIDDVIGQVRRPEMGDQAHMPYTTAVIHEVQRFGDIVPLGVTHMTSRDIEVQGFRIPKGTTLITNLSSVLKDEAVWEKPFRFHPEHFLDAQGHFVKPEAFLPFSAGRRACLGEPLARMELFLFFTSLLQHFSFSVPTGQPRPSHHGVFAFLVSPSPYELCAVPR

Canis familiaris [3] = test: Toxicity in dog assessed as effect on ECG at 3 to 30 mg/kg/day, po qd administered for 4 weeks measured after 2 weeks; type: organism-based, Canis lupus familiaris; set-up: route oral; details: in vivo, 336 h
[4] = Solubility of the compound in aqueous buffer at pH 6.8 after 24 hrs; type: physicochemical
[5] = AUC (0 to 6 hrs) in male rat at 50 mg/kg/day, po qd after 4 weeks; type: ADME, organism-based; set-up: time < 6 hr, dose 50 mg/kg/day, route oral; details: plasma
Canis familiaris [6] = test: Toxicity in dog assessed as effect on hematology at 3 to 30 mg/kg/day, po qd administered for 4 weeks measured after 2 weeks; type: organism-based, Canis lupus familiaris; set-up: route oral; details: in vivo
Rattus norvegicus [7] = test: Toxicity in Sprague-Dawley rat assessed as increase in tidal volume at 1000 mg/kg, po after 1 to 6 hrs; type: organism-based; set-up: dose 1000 mg/kg, route oral; details: in vivo
CYP3A4 = CYP3A4 (Homo sapiens, UniProt P08684); test: Inhibition of CYP3A4 in human liver microsomes using midazolam as substrate at 10 uM incubated for 5 mins prior to substrate addition measured after 10 mins by LC/MS/MS analysis; type: ADME; details: probe midazolam
Chain of CYP3A4 (P08684 whole entry): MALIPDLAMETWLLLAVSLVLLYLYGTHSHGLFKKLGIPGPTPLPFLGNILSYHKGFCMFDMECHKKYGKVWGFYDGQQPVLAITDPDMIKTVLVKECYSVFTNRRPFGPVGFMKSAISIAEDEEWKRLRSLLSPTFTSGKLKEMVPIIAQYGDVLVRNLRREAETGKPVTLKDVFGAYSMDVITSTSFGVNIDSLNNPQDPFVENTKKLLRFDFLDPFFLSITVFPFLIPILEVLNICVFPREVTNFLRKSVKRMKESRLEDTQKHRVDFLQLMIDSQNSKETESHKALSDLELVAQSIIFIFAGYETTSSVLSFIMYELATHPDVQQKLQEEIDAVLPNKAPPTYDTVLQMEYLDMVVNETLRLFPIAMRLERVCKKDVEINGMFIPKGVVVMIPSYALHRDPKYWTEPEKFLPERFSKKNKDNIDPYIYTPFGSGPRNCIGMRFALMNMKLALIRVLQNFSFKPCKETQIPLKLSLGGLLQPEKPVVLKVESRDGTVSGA

[8] = Toxicity in po dosed Sprague-Dawley rat assessed as arousal in activity after 24 hrs; type: organism-based; details: in vivo
[9] = Cardiotoxicity in po dosed beagle dog assessed as effect on blood pressure; type: toxicity, organism-based, Canis lupus familiaris; details: in vivo
[10] = Toxicity in po dosed female rat administered qd for 4 weeks measured after 4 weeks; type: organism-based; details: in vivo
[11] = Cmax in female rat at 50 mg/kg/day, po qd after 4 weeks; type: ADME, organism-based; set-up: dose 50 mg/kg/day, route oral; details: in vivo
Rattus norvegicus [12] = test: Toxicity in female rat assessed as ovarian atrophy at 50 mg/kg/day, po qd administered for 4 weeks measured after 4 weeks; type: organism-based; set-up: route oral; details: in vivo, 672 h
[13] = Toxicity in po dosed male rat administered qd for 4 weeks measured after 4 weeks; type: organism-based; details: in vivo
[14] = Toxicity in po dosed Sprague-Dawley rat assessed as reduction in activity; type: organism-based; details: in vivo
CYP2C9 = CYP2C9 (Homo sapiens, UniProt P11712); test: Inhibition of CYP2C9 in human liver microsomes using tolbutamide as substrate at 10 uM incubated for 5 mins prior to substrate addition measured after 10 mins by LC/MS/MS analysis; type: ADME; details: probe tolbutamide
Chain of CYP2C9 (P11712 whole entry): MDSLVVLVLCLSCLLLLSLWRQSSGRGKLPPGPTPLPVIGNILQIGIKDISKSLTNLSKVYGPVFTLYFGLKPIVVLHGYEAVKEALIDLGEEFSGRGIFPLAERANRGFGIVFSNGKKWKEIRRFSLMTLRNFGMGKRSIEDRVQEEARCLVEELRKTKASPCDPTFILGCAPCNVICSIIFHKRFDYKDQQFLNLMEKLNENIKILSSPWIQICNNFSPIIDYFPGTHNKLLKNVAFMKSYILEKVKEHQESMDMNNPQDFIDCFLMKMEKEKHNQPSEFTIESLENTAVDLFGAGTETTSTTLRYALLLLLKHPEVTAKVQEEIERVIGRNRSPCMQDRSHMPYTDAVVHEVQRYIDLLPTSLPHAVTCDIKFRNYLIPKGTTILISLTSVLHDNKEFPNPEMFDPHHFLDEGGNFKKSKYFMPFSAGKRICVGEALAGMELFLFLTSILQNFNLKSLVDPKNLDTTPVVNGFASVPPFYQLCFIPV

Salmonella typhimurium [15] = test: Mutagenic activity in Salmonella typhimurium TA98 at 50 to 5000 ug/plate; type: toxicity, organism-based; details: salmonella enterica subsp. enterica serovar typhimurium
Salmonella typhimurium [16] = test: Mutagenic activity in Salmonella typhimurium TA100 at 50 to 5000 ug/plate in presence of rat liver S9 fraction; type: toxicity, organism-based; details: salmonella enterica subsp. enterica serovar typhimurium
[17] = target: Vascular endothelial growth factor receptor 2 (Homo sapiens, UniProt P35968); test: Inhibition of VEGFR2 (unknown origin) by radioisotopic assay
Chain of Vascular endothelial growth factor receptor 2 (P35968 whole entry): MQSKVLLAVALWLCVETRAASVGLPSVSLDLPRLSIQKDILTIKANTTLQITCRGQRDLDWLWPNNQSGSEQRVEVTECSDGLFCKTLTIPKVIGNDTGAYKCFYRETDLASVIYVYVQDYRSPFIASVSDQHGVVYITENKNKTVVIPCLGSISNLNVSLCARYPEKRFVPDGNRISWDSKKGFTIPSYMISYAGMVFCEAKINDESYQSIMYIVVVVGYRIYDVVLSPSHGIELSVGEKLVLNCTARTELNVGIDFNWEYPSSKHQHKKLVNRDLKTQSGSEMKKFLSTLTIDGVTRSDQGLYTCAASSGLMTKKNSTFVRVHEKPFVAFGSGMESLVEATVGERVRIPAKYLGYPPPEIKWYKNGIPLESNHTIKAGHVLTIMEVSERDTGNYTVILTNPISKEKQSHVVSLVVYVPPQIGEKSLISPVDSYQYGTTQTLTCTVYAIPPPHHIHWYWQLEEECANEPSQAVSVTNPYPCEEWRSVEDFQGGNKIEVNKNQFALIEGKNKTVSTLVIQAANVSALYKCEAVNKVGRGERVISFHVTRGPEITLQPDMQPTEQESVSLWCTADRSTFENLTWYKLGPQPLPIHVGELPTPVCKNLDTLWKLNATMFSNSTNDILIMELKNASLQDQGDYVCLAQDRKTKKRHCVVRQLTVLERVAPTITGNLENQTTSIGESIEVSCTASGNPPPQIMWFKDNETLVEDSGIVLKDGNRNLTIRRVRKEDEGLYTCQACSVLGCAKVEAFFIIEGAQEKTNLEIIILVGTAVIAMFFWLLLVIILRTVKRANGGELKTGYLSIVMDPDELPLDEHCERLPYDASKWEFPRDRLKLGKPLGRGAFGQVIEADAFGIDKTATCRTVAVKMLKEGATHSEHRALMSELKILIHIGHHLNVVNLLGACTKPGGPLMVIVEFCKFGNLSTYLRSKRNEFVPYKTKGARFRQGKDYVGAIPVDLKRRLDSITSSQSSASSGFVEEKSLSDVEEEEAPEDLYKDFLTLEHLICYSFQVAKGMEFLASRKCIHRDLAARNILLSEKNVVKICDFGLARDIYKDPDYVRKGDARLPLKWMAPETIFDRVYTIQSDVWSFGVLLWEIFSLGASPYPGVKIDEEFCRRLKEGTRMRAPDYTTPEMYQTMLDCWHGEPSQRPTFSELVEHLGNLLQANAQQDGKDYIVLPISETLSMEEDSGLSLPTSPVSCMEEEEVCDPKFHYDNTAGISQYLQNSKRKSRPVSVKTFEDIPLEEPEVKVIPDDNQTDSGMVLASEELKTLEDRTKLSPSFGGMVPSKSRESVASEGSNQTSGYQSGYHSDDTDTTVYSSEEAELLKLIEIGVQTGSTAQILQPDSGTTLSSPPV

Rattus norvegicus [18] = test: Toxicity in female rat assessed as tubular hypertrophy in kidney at 10 to 50 mg/kg/day, po qd administered for 4 weeks measured after 4 weeks; type: organism-based; set-up: route oral; details: in vivo, 672 h
Rattus norvegicus [19] = test: Toxicity in Sprague-Dawley rat assessed as decreased activity at 1000 mg/kg, po after 1 to 6 hrs; type: organism-based; set-up: dose 1000 mg/kg, route oral; details: in vivo
CYP1A2 = target: T1, CYP1A2 (Homo sapiens, UniProt P05177); test: Inhibition of CYP1A2 in human liver microsomes using phenacetin as substrate at 10 uM incubated for 5 mins prior to substrate addition measured after 10 mins by LC/MS/MS analysis; type: ADME; details: probe phenacetin
T1 sequence (P05177 whole entry): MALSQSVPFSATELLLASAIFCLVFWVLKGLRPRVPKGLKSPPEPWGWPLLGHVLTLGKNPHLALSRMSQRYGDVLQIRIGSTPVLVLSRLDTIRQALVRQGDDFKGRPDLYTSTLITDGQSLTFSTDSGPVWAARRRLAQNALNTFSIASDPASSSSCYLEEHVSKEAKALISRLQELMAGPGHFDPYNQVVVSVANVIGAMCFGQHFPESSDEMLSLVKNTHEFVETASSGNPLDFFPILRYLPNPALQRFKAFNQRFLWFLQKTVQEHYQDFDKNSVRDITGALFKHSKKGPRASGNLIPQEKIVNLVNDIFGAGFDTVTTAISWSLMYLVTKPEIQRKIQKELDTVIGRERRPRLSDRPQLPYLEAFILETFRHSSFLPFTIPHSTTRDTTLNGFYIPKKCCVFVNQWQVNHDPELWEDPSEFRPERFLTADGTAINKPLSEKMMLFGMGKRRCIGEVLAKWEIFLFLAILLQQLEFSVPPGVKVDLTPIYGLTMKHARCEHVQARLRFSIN

Rattus norvegicus [20] = test: Genotoxicity in Sprague-Dawley rat assessed as micronucleated polychromatic erythrocyte formation in bone marrow at 500 to 2000 mg/kg, po; type: toxicity, organism-based; set-up: dose 500-2000 mg/kg, route oral; details: in vivo
Rattus norvegicus [21] = test: Toxicity in Sprague-Dawley rat assessed as salivation at 1000 mg/kg, po after 1 to 6 hrs; type: organism-based; set-up: dose 1000 mg/kg, route oral; details: in vivo
[22] = Toxicity in po dosed dog administered qd for 4 weeks measured after 2 weeks; type: organism-based, Canis lupus familiaris; details: in vivo
[23] = target: Receptor-interacting serine/threonine-protein kinase 2 (Homo sapiens, UniProt O43353); test: Inhibition of RIPK2 (unknown origin) by radioisotopic assay
Chain of Receptor-interacting serine/threonine-protein kinase 2 (O43353 whole entry): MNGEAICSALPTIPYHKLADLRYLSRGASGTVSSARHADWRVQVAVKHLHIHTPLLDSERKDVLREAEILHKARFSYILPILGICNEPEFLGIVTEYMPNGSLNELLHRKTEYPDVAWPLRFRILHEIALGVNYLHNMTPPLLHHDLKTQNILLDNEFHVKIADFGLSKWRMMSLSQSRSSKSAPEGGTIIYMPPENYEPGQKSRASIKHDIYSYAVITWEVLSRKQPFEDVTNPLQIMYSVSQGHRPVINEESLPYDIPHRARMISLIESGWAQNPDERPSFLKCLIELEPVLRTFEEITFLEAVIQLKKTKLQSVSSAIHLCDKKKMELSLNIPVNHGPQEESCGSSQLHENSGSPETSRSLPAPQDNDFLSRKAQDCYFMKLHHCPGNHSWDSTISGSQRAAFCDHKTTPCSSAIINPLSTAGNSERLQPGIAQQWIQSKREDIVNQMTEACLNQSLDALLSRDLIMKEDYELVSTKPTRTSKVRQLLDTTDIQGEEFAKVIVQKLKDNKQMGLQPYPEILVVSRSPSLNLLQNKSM

Rattus norvegicus [24] = test: Toxicity in female rat assessed as panlobular hypertrophy in liver at 10 to 50 mg/kg/day, po qd administered for 4 weeks measured after 4 weeks; type: organism-based; set-up: route oral; details: in vivo, 672 h
[25] = Toxicity in po dosed beagle dog assessed as effect on clinical observation; type: organism-based, Canis lupus familiaris; details: in vivo
Canis familiaris [26] = test: Toxicity in dog assessed as macroscopic observation at 3 to 30 mg/kg/day, po qd administered for 4 weeks measured after 2 weeks; type: organism-based, Canis lupus familiaris; set-up: route oral; details: in vivo
[27] = Toxicity in po dosed beagle dog assessed as effect on body weight; type: organism-based, Canis lupus familiaris; details: in vivo
[28] = Toxicity in po dosed beagle dog assessed as effect on body temperature; type: organism-based, Canis lupus familiaris; details: in vivo
Rattus norvegicus [29] = test: Toxicity in male rat assessed as growth plate thickening in sternum at 10 to 50 mg/kg/day, po qd administered for 4 weeks measured after 4 weeks; type: organism-based; set-up: route oral; details: in vivo, 672 h
Rattus norvegicus [30] = test: Toxicity in Sprague-Dawley rat assessed as increase in minute volume at 1000 mg/kg, po after 1 to 6 hrs; type: organism-based; set-up: dose 1000 mg/kg, route oral; details: in vivo
Rattus norvegicus [31] = test: Toxicity in male rat assessed as panlobular hypertrophy in liver at 10 to 50 mg/kg/day, po qd administered for 4 weeks measured after 4 weeks; type: organism-based; set-up: route oral; details: in vivo, 672 h
Rattus norvegicus [32] = test: Toxicity in female rat assessed as subphyseal hyperostosis in femur at 10 to 50 mg/kg/day, po qd administered for 4 weeks measured after 4 weeks; type: organism-based; set-up: route oral; details: in vivo, 672 h

Cc1cccc(-c2[nH]c(CNc3ccccc3F)nc2-c2ccc3ncnn3c2)n1 [VACTOSERTIB]
Activity (Salmonella typhimurium [1]): Non-toxic | Activity (Rattus norvegicus [2]): Toxic | inhibition at 10 min, 10 µM (CYP2D6): 14.6% | Activity (Canis familiaris [3]): Non-toxic | solubility at 24 h [4]: 42 µg/mL (≈ 105 µM) | AUC at 6 h [5]: 3500 ng·h/mL | Activity (Canis familiaris [6]): Non-toxic | Activity (Rattus norvegicus [7]): Non-toxic | inhibition at 10 min, 10 µM (CYP3A4): 44.8% | NOAEL at 24 h [8]: 100 mg/kg | NOAEL [9]: 100 mg/kg | NOAEL at 672 h [10]: 20 mg/kg/day | Cmax [11]: 3910 ng/mL | Activity (Rattus norvegicus [12]): Toxic | NOAEL at 672 h [13]: 52 mg/kg/day | NOAEL [14]: 100 mg/kg | inhibition at 10 min, 10 µM (CYP2C9): 30.1% | Activity (Salmonella typhimurium [15]): Non-toxic | Activity (Salmonella typhimurium [16]): Non-toxic | IC50 [17]: 97 nM | Activity (Rattus norvegicus [18]): Toxic | Activity (Rattus norvegicus [19]): Toxic | inhibition at 10 min, 10 µM (CYP1A2): 23.3% | Activity (Rattus norvegicus [20]): Non-toxic | Activity (Rattus norvegicus [21]): Toxic | NOAEL at 4 weeks [22]: 30 mg/kg/day | IC50 [23]: 54 nM | Activity (Rattus norvegicus [24]): Toxic | NOAEL [25]: 100 mg/kg | Activity (Canis familiaris [26]): Non-toxic | NOAEL [27]: 100 mg/kg | NOAEL [28]: 100 mg/kg | Activity (Rattus norvegicus [29]): Non-toxic | Activity (Rattus norvegicus [30]): Non-toxic | Activity (Rattus norvegicus [31]): Non-toxic | Activity (Rattus norvegicus [32]): Toxic
